Literature values, collected in publication PMC7686313, “Phase 1 study of mTORC1/2 inhibitor sapanisertib (TAK-228) in advanced solid tumours, with an expansion phase in renal, endometrial or bladder cancer” (British Journal of Cancer, 2020).

Legend:
[1] = test system: refractory clear-cell RCC; parameters: method as in earlier work; conditions: 10 mg QD; cited from earlier work
RCC = conditions: patients with RCC; cited from earlier work

| Compound | ORR [1] [%] | ORR (RCC) [%] |
| --- | --- | --- |
| CO[C@H]1C[C@@H]2CC[C@@H](C)[C@@](O)(O2)C(=O)C(=O)N2CCCC[C@H]2C(=O)O[C@H]([C@H](C)C[C@@H]2CC[C@@H](OCCO)[C@H](OC)C2)CC(=O)[C@H](C)/C=C(\C)[C@@H](O)[C@@H](OC)C(=O)[C@H](C)C[C@H](C)/C=C/C=C/C=C/1C [everolimus, reference compound] | 13 |  |
| CO[C@H]1C[C@@H]2CC[C@@H](C)[C@@](O)(O2)C(=O)C(=O)N2CCCC[C@H]2C(=O)O[C@H]([C@H](C)C[C@@H]2CC[C@@H](OC(=O)C(C)(CO)CO)[C@H](OC)C2)CC(=O)[C@H](C)/C=C(\C)[C@@H](O)[C@@H](OC)C(=O)[C@H](C)C[C@H](C)/C=C/C=C/C=C/1C [temsirolimus] |  | 8.6 |
